Assay results taken from DBAASP.
Values after ≈ are worked out from the molar mass of the structure shown. Values joined by “and” are separate entries in the source; they are usually repeats but may differ in a detail not shown here. Identical values can stand only once. Each block holds one molecule with its values, some of them ahead of it.

Key:
Assay in all cases: ≥ marks a high value that may be exact or a test limit, other limits are often not marked, values filed in µg/mL are converted to µM
[1] = test system: Streptococcus pneumoniae BCRC 10794
[2] = test system: Pseudomonas aeruginosa ATCC 27853
[3] = test system: Staphylococcus aureus ATCC 25923
[4] = test system: Klebsiella pneumoniae ATCC 13883
[5] = test system: Escherichia coli ATCC 25922
[6] = test system: Listeria monocytogenes ATCC 35152
[7] = test system: Pseudomonas aeruginosa CGMCC 1.860
[8] = test system: Enterococcus faecalis CGMCC 1.595
[9] = test system: Staphylococcus epidermidis PCM 2118
[10] = test system: Enterobacter cloacae CGMCC 1.58
[11] = test system: Candida parapsilosis CCM 8260
[12] = test system: Fusobacterium nucleatum CGMCC 1.2526
[13] = test system: Candida albicans CCM 8186
[14] = test system: Staphylococcus aureus AS1.72
[15] = test system: Klebsiella pneumoniae subsp. pneumoniae CGMCC 1.176
[16] = test system: Lactobacillus acidophilus CGMCC 1.1854
Bacillus cereus = test system: Bacillus cereus
[17] = test system: Proteus mirabilis CICC 22931
[18] = test system: Enterococcus faecium CGMCC 1.2334
Candida krusei CCM 8271 = test system: Candida krusei CCM 8271
Bacillus cereus AS1.126 = test system: Bacillus cereus AS1.126
[19] = test system: Candida tropicalis CCM 8264
Bacillus subtilis = test system: Bacillus subtilis
[20] = test system: Escherichia coli PCM 2057
[21] = test system: Streptococcus mutans CGMCC 1.2500
[22] = test system: Candida albicans CMCC 98001
[23] = test system: Candida albicans PCM 2566
[24] = test system: Staphylococcus aureus PCM 2054
[25] = test system: Staphylococcus epidermidis PCM 521
[26] = test system: Staphylococcus aureus PMC 1650
[27] = test system: Candida glabrata CCM 8270
[28] = test system: Pseudomonas aeruginosa PCM 499
[29] = test system: Staphylococcus epidermidis CICC 23664
[30] = test system: Streptococcus salivarius CGMCC 1.2498
[31] = test system: Streptococcus sanguinis CGMCC 1.2497
Escherichia coli AS1.349 = test system: Escherichia coli AS1.349
Candida parapsilosis = test system: Candida parapsilosis
[32] = test system: Staphylococcus aureus ATCC 33591
[33] = test system: Candida albicans ATCC 200955
[34] = test system: Zymomonas mobilis ATCC 10988
[35] = test system: Escherichia coli DH5alpha
Bacillus subtilis DELTA = test system: Bacillus subtilis DELTA
[36] = test system: Enterococcus faecium ATCC 700221
[37] = test system: Staphylococcus epidermidis ATCC 12228
[38] = test system: Salmonella enterica subsp. enterica serovar Typhi DMST 22842
[39] = test system: Staphylococcus aureus DSM 1104
[40] = test system: Micrococcus luteus DSM 1790
[41] = test system: Kocuria rhizophila DSM 348
[42] = test system: Escherichia coli DSM 1103
[43] = test system: Bacillus subtilis ATCC 6633

MIC [2]: 18 µM (≈ 25 µg/mL)
MIC [3]: 7.2 µM (≈ 9.99 µg/mL)
MIC [4]: 18 µM (≈ 25 µg/mL)
MIC [5]: 10.8 µM (≈ 15 µg/mL)
MIC [6]: 14.4 µM (≈ 20 µg/mL)
SMILES: CC(C)C[C@H](NC(=O)[C@@H](NC(=O)[C@H](CCC(N)=O)NC(=O)[C@H](CCCCN)NC(=O)[C@H](Cc1cnc[nH]1)NC(=O)[C@H](CC(C)C)NC(=O)[C@H](C)NC(=O)[C@@H](NC(=O)[C@H](CC(C)C)NC(=O)[C@H](CCCCN)NC(=O)[C@H](CC(C)C)NC(=O)[C@@H](N)CCCCN)C(C)C)C(C)C)C(N)=O [KLKLVALHKQVL]

MIC [3]: > 35.7 µM
MIC [37]: 9.03 µM (≈ 23 µg/mL)
MIC [38]: ≥ 35.7 µM
MIC [5]: 18.1 µM (≈ 46 µg/mL)
SMILES: CC(C)[C@H](NC(=O)CNC(=O)[C@@H](N)CC(N)=O)C(=O)N[C@@H](CCC(N)=O)C(=O)N1CCC[C@H]1C(=O)N[C@@H](CCCCN)C(=O)N[C@@H](Cc1ccc(O)cc1)C(=O)N[C@@H](CCCN=C(N)N)C(=O)N[C@@H](Cc1c[nH]c2ccccc12)C(=O)N[C@@H](Cc1c[nH]c2ccccc12)C(=O)N[C@@H](CCCN=C(N)N)C(=O)N[C@@H](Cc1c[nH]c2ccccc12)C(=O)N[C@@H](Cc1c[nH]c2ccccc12)C(=O)N[C@@H](CCCN=C(N)N)C(=O)N[C@@H](CCCN=C(N)N)C(=O)N[C@@H](Cc1c[nH]c2ccccc12)C(=O)N[C@@H](Cc1c[nH]c2ccccc12)C(=O)O [NGVQPKYRWWRWWRRWW]

More lines, now with the values behind:

SMILES: CC[C@H](C)[C@H](NC(C)=O)C(=O)N[C@@H](Cc1cnc[nH]1)C(=O)NCC(=O)N[C@@H](CC(C)C)C(=O)N[C@H](C(N)=O)C(C)C [IHGLV]
MIC [1]: ≥ 186 µM

SMILES: CC[C@H](C)[C@H](N)C(=O)N[C@@H](CCCCN)C(=O)N[C@@H](CCCCN)C(=O)N[C@H](C(=O)N[C@@H](CC(C)C)C(=O)N[C@@H](CO)C(=O)N[C@@H](CCCCN)C(=O)N[C@H](C(=O)N[C@@H](CCCCN)C(=O)N[C@@H](CCCCN)C(=O)N[C@@H](CC(C)C)C(=O)N[C@@H](CC(C)C)C(=O)N[C@@H](CCCCN)C(N)=O)[C@@H](C)CC)[C@@H](C)CC [IKKILSKIKKLLK]
MIC [7]: 6.25 µM (≈ 9.7 µg/mL)
MIC [8]: 3.13 µM (≈ 4.86 µg/mL)
MIC [9]: 5.02 µM and 4.02 µM
MIC [10]: ≥ 100 µM
MIC [11]: 5.02 µM and 8.05 µM
MIC [12]: 4.69 µM (≈ 7.28 µg/mL)
MIC [13]: 20.2 µM (≈ 31.3 µg/mL)
MIC [14]: 5 µM (≈ 7.76 µg/mL)
MIC [15]: ≥ 100 µM
MIC [16]: 3.13 µM (≈ 4.86 µg/mL)
MIC (Bacillus cereus): ≥ 32.2 µM
MIC [17]: ≥ 100 µM
MIC [18]: 5 µM (≈ 7.76 µg/mL)
MIC (Candida krusei CCM 8271): 5.02 µM and 8.05 µM
MIC (Bacillus cereus AS1.126): 6.25 µM (≈ 9.7 µg/mL)
MIC [19]: 1.29 µM (≈ 2 µg/mL)
MIC (Bacillus subtilis): 5.02 µM (≈ 7.8 µg/mL)
MIC [20]: ≥ 80.5 µM
MIC [21]: 3.13 µM (≈ 4.86 µg/mL)
MIC [22]: 6.25 µM (≈ 9.7 µg/mL)
MIC [23]: ≥ 32.2 µM
MIC [24]: ≥ 64.4 µM
MIC [25]: 4.02 µM (≈ 6.25 µg/mL)
MIC [26]: ≥ 32.2 µM
MIC [27]: 20.2 µM and 20.1 µM
MIC [28]: 16.1 µM (≈ 25 µg/mL)
MIC [29]: 4.69 µM (≈ 7.28 µg/mL)
MIC [30]: 6.25 µM (≈ 9.7 µg/mL)
MIC [31]: 6.25 µM (≈ 9.7 µg/mL)
MIC (Escherichia coli AS1.349): 3.13 µM (≈ 4.86 µg/mL)

SMILES: CC[C@H](C)[C@H](NC(=O)[C@H](Cc1ccccc1)NC(=O)[C@H](CCCCN)NC(=O)[C@H](CC(C)C)NC(=O)[C@H](CC(C)C)NC(=O)CN)C(=O)N[C@@H](CCCCN)C(=O)N[C@@H](CCCCN)C(=O)N[C@@H](CC(C)C)C(=O)N[C@@H](CC(C)C)C(N)=O [GLLKFIKKLL]
MIC [2]: 28.4 µM (≈ 33.3 µg/mL)
MIC (Candida parapsilosis): ≥ 34.1 µM
MIC [32]: 9.5 µM (≈ 11.1 µg/mL)
MIC [33]: 9.5 µM (≈ 11.1 µg/mL)
MIC [34]: 5.97 µM (≈ 6.99 µg/mL)
MIC [35]: ≥ 256 µM
MIC (Bacillus subtilis DELTA): 25.6 µM (≈ 30 µg/mL)
MIC [5]: 9.5 µM (≈ 11.1 µg/mL)
MIC [36]: 9.5 µM (≈ 11.1 µg/mL)

SMILES: CC[C@H](C)[C@H](NC(=O)[C@H](CCCCN)NC(=O)CNC(=O)[C@H](C)NC(=O)[C@@H](NC(=O)[C@H](CCCCN)NC(=O)[C@H](C)NC(=O)[C@@H](NC(=O)[C@H](CCCCN)NC(=O)CNC(=O)[C@H](C)NC(=O)[C@@H](NC(=O)[C@H](CCCCN)NC(=O)[C@H](C)NC(=O)[C@@H](NC(=O)[C@H](CCCCN)NC(=O)CNC(=O)[C@H](C)NC(=O)[C@@H](NC(=O)[C@@H](N)CCCCN)[C@@H](C)CC)[C@@H](C)CC)[C@@H](C)CC)[C@@H](C)CC)[C@@H](C)CC)C(=O)N[C@@H](C)C(=O)O [KIAGKIAKIAGKIAKIAGKIA]
MIC [39]: ≥ 62 µM
MIC [40]: 7.75 µM (≈ 16 µg/mL)
MIC [41]: ≥ 62 µM
MIC [35]: 7.75 µM (≈ 16 µg/mL)
MIC [42]: 3.88 µM (≈ 8 µg/mL)
MIC [43]: 3.88 µM (≈ 8 µg/mL)
